US7393812B2, “Methylidene mevalonates and their use as herbicides” (Dow AgroSciences LLC, priority 2004, dated 2008)

Tests used:
Assay in all cases: Synergistic herbicidal activity, foliar track sprayer
Type in all cases: in vivo
Conditions in all cases: methylidene mevalonate 933 g ae/ha alone, 14 days, 1% crop oil concentrate
[1] = system: crabgrass (Digitaria sanguinalis, DIGSA)
Procedure: (§1) Methylidene mevalonate alone and in combination with nonanoic acid was applied to the foliage of rapidly growing plant material utilizing a track sprayer calibrated to deliver an application volume of 187 L/ha. These treatments were applied to both broadleaf and grass weed species. All treatments contained 1% crop oil concentrate. Assessment of herbicidal activity was performed visually relative to untreated controls after 14 days incubation in the greenhouse. Species abbreviations are as previously defined.

[2] = system: lambsquarters (Chenopodium album, CHEAL)
Procedure: as §1

[3] = system: morningglory (Ipomoea hederacea, IPOHE)
Procedure: as §1

[4] = system: wild oats (Avena fatua, AVEFA)
Procedure: as §1

Which results are given for `C=C(CO)C(C)(O)CC(=O)O` (stereo not shown) [methylidene mevalonate, 3-hydroxy-4-(hydroxymethyl)-3-methylpent-4-enoic acid]?
Actual Injury % growth reduction [1]: 35%; Actual Injury % growth reduction [2]: 0%; Actual Injury % growth reduction [3]: 60%; Actual Injury % growth reduction [4]: 35%
